Data as given in article PMC9628931 (Chemical Science, 2022).

Tests used:
[1] = target: T1, AsAKS2 (BAHD5, 37058_t) (Alstonia scholaris, UniProt A0A9E7LUL3); test: LCMS detection of akuammiline; format: biochemical; conditions: co-substrate rhazimol
T1 sequence (A0A9E7LUL3 1-450): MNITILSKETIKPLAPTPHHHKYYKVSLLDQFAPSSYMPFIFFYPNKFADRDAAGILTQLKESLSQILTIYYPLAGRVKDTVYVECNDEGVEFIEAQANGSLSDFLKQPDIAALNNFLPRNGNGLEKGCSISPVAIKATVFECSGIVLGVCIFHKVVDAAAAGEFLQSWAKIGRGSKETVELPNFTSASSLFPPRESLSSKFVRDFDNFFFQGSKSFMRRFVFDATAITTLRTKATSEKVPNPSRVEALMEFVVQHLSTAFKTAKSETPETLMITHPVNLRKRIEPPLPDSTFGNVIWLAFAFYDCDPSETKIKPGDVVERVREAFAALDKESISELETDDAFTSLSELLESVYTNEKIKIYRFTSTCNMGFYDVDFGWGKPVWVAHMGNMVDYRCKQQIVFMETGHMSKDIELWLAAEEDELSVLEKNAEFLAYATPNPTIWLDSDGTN

[2] = target: T2, AsAKS1 (BAHD3, 43565_t) (Alstonia scholaris, UniProt A0A9E7S5E3); test: LCMS detection of akuammiline; format: biochemical; conditions: co-substrate rhazimol
T2 sequence (A0A9E7S5E3 1-419): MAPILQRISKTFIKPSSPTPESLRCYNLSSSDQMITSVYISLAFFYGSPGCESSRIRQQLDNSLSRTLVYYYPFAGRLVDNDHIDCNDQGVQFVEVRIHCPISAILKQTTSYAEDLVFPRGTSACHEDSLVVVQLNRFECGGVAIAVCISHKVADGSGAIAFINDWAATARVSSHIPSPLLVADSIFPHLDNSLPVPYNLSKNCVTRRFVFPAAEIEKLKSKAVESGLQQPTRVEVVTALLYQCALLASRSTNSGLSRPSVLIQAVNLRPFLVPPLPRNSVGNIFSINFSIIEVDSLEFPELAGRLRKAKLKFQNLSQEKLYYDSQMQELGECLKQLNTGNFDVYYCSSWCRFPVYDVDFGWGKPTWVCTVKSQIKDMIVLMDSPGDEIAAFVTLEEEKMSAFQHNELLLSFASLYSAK

Q: Which results are given for `CC(=O)SCCNC(=O)CCNC(=O)[C@H](O)C(C)(C)COP(=O)(O)OP(=O)(O)OC[C@H]1O[C@@H](n2cnc3c(N)ncnc32)[C@H](O)[C@@H]1OP(=O)(O)O` [acetyl-CoA]?
A: LCMS detection of akuammiline [1]: The BAHD candidates were assayed by incubation with rhazimol and acetyl-CoA; LCMS detection of akuammiline [2]: The BAHD candidates were assayed by incubation with rhazimol and acetyl-CoA
